This note sets out measurements from paper PMC2481421, “Gene expression response in target organ and whole blood varies as a function of target organ injury phenotype” (Genome Biology, 2008).

Several values for one entry are separate records, joined by “and”; a condition that tells them apart may be missing. Equal entries are not always repeated. Entries after “also recorded” stand apart in the source; their conditions may differ.

Data set [1] can be described thus: In-life observations: body weight, gross findings before and at necropsy. As to conditions: individual animals. The format is in vivo, Male Fischer 344/N rats. The protocol: Doses were determined with pilot experiments. […] Serum was collected for clinical chemistry.
Another data set relates to liver. As to the kind of experiment: Liver histopathology (H&E sections of left liver lobe, severity graded) after a single dose. As to conditions: for Primary site of livery injury: rat, single administration.
[2] abbreviates: 15 mg/kg, gavage, corn oil, 6 hours.
Where [3] appears, read: 15 mg/kg, gavage, corn oil, 24 hours, listed as 1, 4-Dichlorobenzene.
Setting [4] is: 15 mg/kg, gavage, corn oil, 48 hours.
Setting [5] is: 150 mg/kg, gavage, corn oil, 6 hours.
[6] abbreviates: 150 mg/kg, gavage, corn oil, 24 hours, listed as 1, 4-Dichlorobenzene.
Where [7] appears, read: 150 mg/kg, gavage, corn oil, 48 hours.
[8] abbreviates: 1500 mg/kg, gavage, corn oil, 24 hours, listed as 1, 4-Dichlorobenzene.
The mark [9] stands for this setting: 1500 mg/kg, gavage, corn oil, 48 hours.
Setting [10] is: 25 mg/kg, gavage, corn oil, 6 hours.
Where [11] appears, read: 25 mg/kg, gavage, corn oil, 24 hours.
Where [12] appears, read: 25 mg/kg, gavage, corn oil, 48 hours.
[13] abbreviates: 75 mg/kg, Gavage, Corn Oil, 48 hours.
Where [14] appears, read: 75 mg/kg, gavage, corn oil, 6 hours.
Where [15] appears, read: 75 mg/kg, gavage, corn oil, 24 hours.
[16] abbreviates: 250 mg/kg, Gavage, Corn Oil, 48 hours.
[17] abbreviates: 250 mg/kg, gavage, corn oil, 6 hours.
[18] abbreviates: 250 mg/kg, gavage, corn oil, 24 hours.
[19] abbreviates: medium dose, 6 hour, six animals.

Procedure for liver: The animals were acclimated for 14 days and observed for absence of disease.
Doses were determined with pilot experiments. For each chemical, doses that elicited a sub-toxic ('low'), a moderately toxic ('medium') or a overtly toxic ('high') response 24 hours after treatment were selected. […] For each compound, control animal groups were treated with vehicle alone. All animals were fasted for 12-18 hours prior to exposure. Groups of four to six animals were dosed between 8:30 and 9:30 a.m.; thereafter, feed was provided ad libitum. After 6, 24 or 48 hours of treatment, animals were anesthetized by isoflurane anesthesia. Whole blood was collected via retro-orbital plexus for hematology and gene expression analysis. Serum was collected for clinical chemistry. The animals were euthanized while under anesthesia by cervical dislocation and necropsied within 4 minutes of sacrifice. The left liver lobe was promptly removed and two defined cross sections were placed in 10% neutral buffered formalin for subsequent histopathology.
The cross sections that were fixed by immersion in 10% neutral buffered formalin (see 'In-life studies' section above) were transferred to histology grade alcohol for 18-24 hours after necropsy. Tissues were then processed, embedded in paraffin, sectioned at 5 microns, and stained with hematoxylin and eosin. A pathologist completed the initial microscopic evaluation of each liver sample for a given compound. […] An independent pathology quality assessment review was performed by a second pathologist on the initial histopathological findings.

As to `Clc1ccc(Cl)cc1` [1,4-Dichlorobenzene], the “Clin/Ob Prior to Necropsy” value in data set [1] (setting [2]) is given as “Normal”; in data set [1] (15 mg/kg, gavage, corn oil, 24 hours) it was “Normal”; in data set [1] (setting [4]), “Normal”; in data set [1] (setting [5]) it was “Normal”; in data set [1] (150 mg/kg, gavage, corn oil, 24 hours), “Normal”; in data set [1] (setting [7]), “Normal”. For the same molecule, the “Clin/Ob Prior to Necropsy” value in data set [1] (1500 mg/kg, gavage, corn oil, 6 hours) is recorded as “Normal”; in data set [1] (1500 mg/kg, gavage, corn oil, 24 hours), “Normal”; in data set [1] (setting [9]) it was “Normal”. The “Gross Findings” value in data set [1] (setting [2]) is on record as “No Gross Findings”; in data set [1] (setting [3]) it was “Liver median lobe with dark area 3x5 mm; also recorded: No Gross Findings”; in data set [1] (setting [4]) it was “No Gross Findings”; in data set [1] (setting [5]) it was “No Gross Findings”; in data set [1] (setting [6]), “Liver median lobe mottled; Bladder calculi; also recorded: No Gross Findings”; in data set [1] (setting [7]), “No Gross Findings”. Moreover, the “Gross Findings” value is “Liver left and median lobes mottled; also recorded: No Gross Findings” in data set [1] (1500 mg/kg, gavage, corn oil, 6 hours, listed as 1, 4-Dichlorobenzene); “No Gross Findings; also recorded: Liver median lobe mottled on dorsal side” in data set [1] (setting [8]); “No Gross Findings” in data set [1] (setting [9]). Besides, the “Final Body Wt.” value is 232.30 g and 225.40 g and 254.10 g and 277.50 g in data set [1] (setting [3]); 239.30 g and 240.50 g and 258.30 g and 262.70 g in data set [1] (15 mg/kg, gavage, corn oil, 48 hours, listed as 1, 4-Dichlorobenzene); 243.60 g and 238.40 g and 164.30 g and 262.50 g in data set [1] (setting [6]); 234.10 g and 237.30 g and 264.20 g and 251.10 g in data set [1] (150 mg/kg, gavage, corn oil, 48 hours, listed as 1, 4-Dichlorobenzene); 242.10 g and 248.00 g and 261.40 g and 259.70 g in data set [1] (setting [8]); 237.50 g and 238.20 g and 259.90 g and 253.70 g in data set [1] (1500 mg/kg, gavage, corn oil, 48 hours, listed as 1, 4-Dichlorobenzene).
As for `Brc1ccccc1` [Bromobenzene], the “Clin/Ob Prior to Necropsy” value in data set [1] (setting [10]), in data set [1] (setting [11]), in data set [1] (setting [12]), in data set [1] (setting [13]), in data set [1] (setting [14]) and in data set [1] (setting [15]) was “Normal” each time. The “Clin/Ob Prior to Necropsy” value is on record as “Normal” in data set [1] (setting [16]), “Normal” in data set [1] (setting [17]) and “Ungroomed Appearance” in data set [1] (setting [18]). In addition, the “Gross Findings” value is “No Gross Findings” in data set [1] (setting [10]); “No Gross Findings” in data set [1] (setting [11]); “No Gross Findings” in data set [1] (setting [12]); “No Gross Findings” in data set [1] (setting [13]); “No Gross Findings; also recorded: Liver left lobe mottled” in data set [1] (setting [14]); “No Gross Findings” in data set [1] (setting [15]). In addition, the “Gross Findings” value was “Liver left lobe firm with mottled edges, median lobe firm with mottled edges; also recorded: Liver left lobe mild roughening of surface, median lobe mild roughening of surface” in data set [1] (setting [16]); “No Gross Findings; also recorded: Liver left lobe and median lobe mottled” in data set [1] (setting [17]); “Liver left lobe dark, mottled, and firm (anterior end darker), median lobe dark, mottled, and firm; also recorded: Liver left lobe mottled with dark edges, median lobe dark and mottled (left side darker)” in data set [1] (setting [18]). Besides, the “Final Body Wt.” value in data set [1] (setting [11]) was 249.50 g and 261.40 g and 229.00 g and 231.60 g; in data set [1] (setting [12]), 244.40 g and 235.00 g and 246.60 g and 231.60 g; in data set [1] (setting [13]) it was 236.60 g and 225.70 g and 236.40 g and 237.30 g; in data set [1] (setting [15]), 242.50 g and 258.00 g and 249.00 g and 228.00 g; in data set [1] (setting [16]) it was 203.70 g and 220.50 g and 212.60 g and 210.30 g; in data set [1] (setting [18]) it was 214.60 g and 204.50 g and 218.70 g and 200.70 g. Moreover, in the data set with liver, the “Primary site of livery injury” value is on record as “Centrilobular”.
In the case of `c1cc[n+]2c(c1)-c1cccc[n+]1CC2` [Diquat Dibromide], the “Clin/Ob Prior to Necropsy” value is “normal” in data set [1] (5 mg/kg, I.P., PBS, 6 hours); “normal” in data set [1] (5 mg/kg, I.P., PBS, 24 hours); “normal; also recorded: Piloerection” in data set [1] (5 mg/kg, I.P., PBS, 48 hours); “normal” in data set [1] (10 mg/kg, I.P., PBS, 6 hours); “normal” in data set [1] (10 mg/kg, I.P., PBS, 24 hours); “normal” in data set [1] (10 mg/kg, I.P., PBS, 48 hours). Moreover, the “Clin/Ob Prior to Necropsy” value is recorded as “normal” in data set [1] (20 mg/kg, I.P., PBS, 6 hours); “normal; also recorded: Piloerection” in data set [1] (20 mg/kg, I.P., PBS, 24 hours); “normal; also recorded: Piloerection” in data set [1] (20 mg/kg, I.P., PBS, 48 hours); “normal; also recorded: Piloerection; also recorded: Comatose” in data set [1] (25 mg/kg, I.P., PBS, 6 hours); “Piloerection; also recorded: normal; also recorded: Ungroomed Appearance” in data set [1] (25 mg/kg, I.P., PBS, 24 hours); “normal; also recorded: Ungroomed Appearance; also recorded: Piloerection” in data set [1] (25 mg/kg, I.P., PBS, 48 hours). The “Gross Findings” value in data set [1] (5 mg/kg, I.P., PBS, 6 hours) is “No Gross Findings; also recorded: Liver: median lobe dark area ventral surface 3x5mm; also recorded: Liver: left lobe accentuated centrilobular pattern”; in data set [1] (5 mg/kg, I.P., PBS, 24 hours), “No Gross Findings; also recorded: Liver: median lobe HDN; also recorded: Liver: left lobe mottled, median lobe mottled”; in data set [1] (5 mg/kg, I.P., PBS, 48 hours), “No Gross Findings; also recorded: Liver: left lobe mottled, median lobe mottled”; in data set [1] (10 mg/kg, I.P., PBS, 6 hours) it was “Liver: left lobe mottled, median lobe pale patcity area 3x5mm; also recorded: Liver: left lobe dark focus 1x1mm, median lobe mottled; also recorded: No Gross Findings”; in data set [1] (10 mg/kg, I.P., PBS, 24 hours), “No Gross Findings; also recorded: Liver: left lobe mottled, median lobe mottled; also recorded: Liver: median lobe dorsal surface mottled; also recorded: Liver: median lobe HDN”; in data set [1] (10 mg/kg, I.P., PBS, 48 hours) it was “No Gross Findings; also recorded: Liver: left lobe small, median lobe small; also recorded: Liver: left lobe mottled, median lobe mottled”. For the same molecule, the “Gross Findings” value was “Liver: left lobe mottled dark edge, median lobe mottled; also recorded: No Gross Findings” in data set [1] (20 mg/kg, I.P., PBS, 6 hours); “Liver: left lobe mottled/pale, median lobe mottled/pale; also recorded: No Gross Findings; also recorded: Liver: median lobe dorsal surface mottled; also recorded: Liver: left lobe mottled/pale/slightly enlarged, median lobe mottled/pale/ slightly enlarged” in data set [1] (20 mg/kg, I.P., PBS, 24 hours); “No Gross Findings; also recorded: Liver: left lobe mottled/pale, median lobe pale; also recorded: Liver: left lobe mottled/pale, median lobe mottled/pale” in data set [1] (20 mg/kg, I.P., PBS, 48 hours); “No Gross Findings; also recorded: Liver: left lobe mottled dark, median lobe mottled dark” in data set [1] (25 mg/kg, I.P., PBS, 6 hours); “No Gross Findings; also recorded: Liver: left lobe pale, one focal tan area on dorsal side 3x3mm, tan focal area on ventral side 7x5mm; median lobe pale and mottled; also recorded: Liver: left lobe dark edge; also recorded: Liver: left lobe mottled/pale/ rough surface minimal, median lobe mottled/pale/ rough surface minimal” in data set [1] (25 mg/kg, I.P., PBS, 24 hours); “Liver: left lobe pale/small, median lobe pale/small; also recorded: Liver: left lobe pale/mottled/ rough surface slight, median lobe pale/mottled/ rough surface slight” in data set [1] (25 mg/kg, I.P., PBS, 48 hours). Further, the “Final Body Wt.” value in data set [1] (5 mg/kg, I.P., PBS, 24 hours) was 211.10 g and 208.50 g and 245.30 g and 233.00 g and 258.10 g and 250.90 g; in data set [1] (5 mg/kg, I.P., PBS, 48 hours) it was 224.20 g and 218.20 g and 231.10 g and 225.90 g and 257.30 g and 249.20 g; in data set [1] (10 mg/kg, I.P., PBS, 24 hours), 206.10 g and 210.20 g and 242.10 g and 224.30 g and 236.70 g and 244.40 g; in data set [1] (10 mg/kg, I.P., PBS, 48 hours) it was 220.20 g and 230.20 g and 218.20 g and 217.30 g and 243.20 g and 249.30 g; in data set [1] (20 mg/kg, I.P., PBS, 24 hours), 207.30 g and 222.70 g and 236.30 g and 245.70 g and 242.80 g and 235.30 g; in data set [1] (20 mg/kg, I.P., PBS, 48 hours) it was 227.20 g and 217.30 g and 211.20 g and 231.70 g and 252.00 g and 265.20 g. In addition, the “Final Body Wt.” value in data set [1] (25 mg/kg, I.P., PBS, 24 hours) was 240.50 g and 211.50 g and 223.20 g and 243.30 g and 234.60 g and 233.90 g; in data set [1] (25 mg/kg, I.P., PBS, 48 hours), 205.20 g and 208.20 g and 226.90 g and 212.10 g and 236.10 g and 244.10 g.
As for `c1cc[n+]2c(c1)-c1cccc[n+]1CC2` [Diquat], in the data set on liver (high dose, 48 hour), the “extent of hepatocellular necrosis, amount of inflammatory cell infiltrates and/or indications of hepatocellular repair (mitosis) across animals” value is given as “variability”. Moreover, in the data set on liver (setting [19]), the “animals with minimal levels of hepatocellular necrosis” value is listed as “one”, the “animals with no apparent histopathological observations” value is on record as “Three of the six” and the “animals with noted levels of glycogen depletion” value was “two”. Also, the “Primary site of livery injury” value in the data set on liver is on record as “Mid-zonal to centrilobular”.
